Assay [1] deals with Glioblastoma multiforme 3D aggregates (Glioblastoma 1). In words: Annexin V-PI flow cytometry of drug-treated Glioblastoma 1 3D aggregates. It is filed as cell-based, human. How it is done: Two, freshly resected, native samples reached the laboratory directly from the pathologist within 2 hours of surgery. The two samples were treated separately and were labelled as “Glioblastoma 1” and “Glioblastoma 2”. […] The samples were processed according to protocol and drug sensitivity tests were performed using the viable, Sample 1. Samples for DNA and RNA isolation were also stored at −80° C., leaving the opportunity open for additional sequencing or comparative gene expression studies. Traditional out-growth cultures were also prepared from Glioblastoma sample 1 showing the strong viability and proliferative ability of the cells (FIG. 1.). Annexin: Annexin V is used as a non-quantitative probe to detect cells that express phosphatidylserine (PS) on their cell surface, an event found in apoptosis as well as other forms of cell death. The assay combines annexin V staining of PS and PE membrane events with the staining of DNA in the cell nucleus with propidium iodide (PI) or 7-Aminoactinomycin D (AAD-7), distinguishing viable cells from apoptotic cells and necrotic cells. Detection was performed by flow cytometry or a fluorescence microscope. […] Erbitux (Cetuximab): 4.8 mg/ml; […] Erlotinib similarly to Cetuximab is an EGFR inhibitor (the two drugs are frequently used clinically together).

Assay [2] has as its system Glioblastoma multiforme 3D aggregates. In words: CellTiter-Glo 3D Cell Viability Assay, glioblastoma drug sensitivity test. It is filed as cell-based, human. The settings on record: BCNU 0.3, 0.03, 0.003 mg/ml, FIGS. 3 & 4. A general note: Cellular ATP, detected with luciferase, serves as a proxy for viable cell number.
Method: Toxicology assay: CellTiter-Glo® 3D Cell Viability Assay (Promega). The CellTiter-Glo® 3D Cell Viability Assay is a homogeneous, luminescent method to determine the number of viable cells in 3D cell culture based on quantitation of the ATP present, which is a marker for the presence of metabolically active cells.
Aggregates were prepared in 96-well plates and cultures were incubated with the following agents: cisplatin, erlotinib, vinorelbine, and pemetrexed. […] Following 24, 48 h or 72 h incubation, cells were labelled using Annexin V-PI and analyzed by flow cytometry or analysed by Promega CellTiter-Glo® 3D Cell Viability Assay Kit (Luminescent) (ATP detection kit)(FIGS. 3 & 4).
For the next assay, the system named is glioblastoma tumour. In words: Treatment of the glioblastoma patient. It is filed as in vivo, human. How it is done: The patient was treated with BCNU and the tumour was regressing within 2 weeks after the first administration of the drug.

The structures appear in SMILES notation. Some results are limits rather than exact numbers.

`N.N.[Cl][Pt][Cl]` [Cisplatin]: in assay [1] (9 μg/m1), the “Annexin Pl++ Late apoptosis” value was found to be 0.19% and the “Pl+ ratio within Annexin+ Non-viable” value came out at 0.44%.

On to `Nc1nc2[nH]cc(CCc3ccc(C(=O)N[C@@H](CCC(=O)O)C(=O)O)cc3)c2c(=O)[nH]1` [Pemetrexed], for which, in assay [1] (1 μM), the “Annexin Pl++ Late apoptosis” value was 0.19% and the “Pl+ ratio within Annexin+ Non-viable” value was 0.37%.

As to `C#Cc1cccc(Nc2ncnc3cc(OCCOC)c(OCCOC)cc23)c1` [Erlotinib], in assay [1] (1 μM), the “Annexin Pl++ Late apoptosis” value is reported as 0.32% and the “Pl+ ratio within Annexin+ Non-viable” value is 0.62%.

On to `O=NN(CCCl)C(=O)NCCCl` [BCNU, Carmustine], for which the “sensitivity of the glioblastoma cells” value in assay [2] is listed as “clearly confirmed sensitivity”. In the assay with glioblastoma tumour, the “time to tumour regressing after the first administration of the drug” value was at most 2 weeks.

On to `CCC1=C[C@@H]2CN(C1)Cc1c([nH]c3ccccc13)[C@@](C(=O)OC)(c1cc3c(cc1OC)N(C)[C@H]1[C@@](O)(C(=O)OC)[C@H](OC(C)=O)[C@]4(CC)C=CCN5CC[C@]31[C@@H]54)C2` [Vinorelbine], for which, in assay [1] (20 nM), the “Annexin Pl++ Late apoptosis” value was 0.49% and the “Pl+ ratio within Annexin+ Non-viable” value stood at 0.93%. Besides, in assay [1] (50 nM), the “Annexin Pl++ Late apoptosis” value amounted to 0.05% and the “Pl+ ratio within Annexin+ Non-viable” value worked out at 0.09%.

The values are drawn from patent US20190128870A1, “Diagnostic Methods For Patient Specific Therapeutic Decision Making In Cancer Care” (Humeltis, priority 2016, published 2019).
